According to the supplement of paper PMC10307832:

Legend:
Assay in all cases: relative viability (nuclei count vs DMSO), 5 days (fraction); higher = more cells survive
[1] = compound: C1COCCN1C2=NC(=NC3=C2OC4=C3C=CC=N4)C5=CC(=CC=C5)NC(=O)C6=CN=C(C=C6)N + CC1(C)CCC(c2ccc(Cl)cc2)=C(CN2CCN(c3ccc(C(=O)NS(=O)(=O)c4ccc(N[C@H](CCN5CCOCC5)CSc5ccccc5)c(S(=O)(=O)C(F)(F)F)c4)cc3)CC2)C1 [Navitoclax] (partner 0.5 µM)
Method in brief: (§1)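 A single step with final 0.05% Triton X-100, 1% formaldehyde and 1 ug/ml Hoechst fixed the cells and stained nuclei 5 days after treatment. Lung cancer cell lines in 1536-well plates had been treated by pin tool the day after seeding with one drug alone or a fixed anchor-drug dose plus five library-drug doses (not always all listed) in √10 steps, and nuclei were counted on 4× images. Relative viability is the ratio of nuclei in treated wells to nuclei in vehicle wells, taken as the median of duplicate plates.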

[2] = compound: C1COCCN1C2=NC(=NC3=C2OC4=C3C=CC=N4)C5=CC(=CC=C5)NC(=O)C6=CN=C(C=C6)N + CS(=O)(=O)CCNCc1ccc(-c2ccc3ncnc(Nc4ccc(OCc5cccc(F)c5)c(Cl)c4)c3c2)o1 [Lapatinib] (partner 2 µM)
Method in brief: as §1

[3] = compound: CN1CCC(CNc2ccc3ncc(-c4cccc(OC(F)(F)F)c4)n3n2)CC1 [SGI-1776] + O=C(CCCCCCC(=O)Nc1ccccc1)NO [Vorinostat] (partner 1 µM)
Method in brief: as §1

[4] = compound: Nc1ccccc1NC(=O)c1ccc(CNC(=O)OCc2cccnc2)cc1 [Entinostat] + Cc1nc(Nc2ncc(C(=O)Nc3c(C)cccc3Cl)s2)cc(N2CCN(CCO)CC2)n1 [Dasatinib] (partner 0.075 µM)
Method in brief: as §1

For HCC-366, the relative viability ([1]; first compound 0.02 µM) was 1.13, the relative viability ([1]; first compound 0.06325 µM) was 1.21 and the relative viability ([1]; first compound 0.2 µM) was 1. It also gave a relative viability ([1]; first compound 0.6325 µM) of 1.11, a relative viability ([1]; first compound 2 µM) of 0.526 and a relative viability ([2]; first compound 0.02 µM) of 1.35. The relative viability ([2]; first compound 0.06325 µM) was 1.04, the relative viability ([2]; first compound 0.2 µM) was 0.95 and the relative viability ([2]; first compound 0.6325 µM) was 1.03. For the same cell line, the relative viability ([2]; first compound 2 µM) was 0.453, the relative viability ([3]; first compound 0.08 µM) was 0.462 and the relative viability ([3]; first compound 0.8 µM) was 0.418. It also gave a relative viability ([3]; first compound 2.53 µM) of 0.392, a relative viability ([3]; first compound 8 µM) of 0.266 and a relative viability ([4]; first compound 0.02 µM) of 0.679. It also gave a relative viability ([4]; first compound 0.06325 µM) of 0.663, a relative viability ([4]; first compound 0.2 µM) of 0.527 and a relative viability ([4]; first compound 0.6325 µM) of 0.512. It also gave a relative viability ([4]; first compound 2 µM) of 0.196.

HCC-827 gave a relative viability ([1]; first compound 0.02 µM) of 1.02, a relative viability ([1]; first compound 0.06325 µM) of 1.07 and a relative viability ([1]; first compound 0.2 µM) of 1.08. It also gave a relative viability ([1]; first compound 0.6325 µM) of 1.05, a relative viability ([1]; first compound 2 µM) of 1.07 and a relative viability ([2]; first compound 0.02 µM) of 0.172. For the same cell line, the relative viability ([2]; first compound 0.06325 µM) was 0.214, the relative viability ([2]; first compound 0.2 µM) was 0.254 and the relative viability ([2]; first compound 0.6325 µM) was 0.186. For the same cell line, the relative viability ([2]; first compound 2 µM) was 0.21, the relative viability ([3]; first compound 0.08 µM) was 0.865 and the relative viability ([3]; first compound 0.8 µM) was 0.908. For the same cell line, the relative viability ([3]; first compound 2.53 µM) was 0.858, the relative viability ([3]; first compound 8 µM) was 0.806 and the relative viability ([4]; first compound 0.02 µM) was 0.255. It also gave a relative viability ([4]; first compound 0.06325 µM) of 0.269, a relative viability ([4]; first compound 0.2 µM) of 0.23 and a relative viability ([4]; first compound 0.6325 µM) of 0.227. The relative viability ([4]; first compound 2 µM) was 0.294.

Cell Line HOP-62 has a relative viability ([1]; first compound 0.02 µM) of 1.05, a relative viability ([1]; first compound 0.06325 µM) of 1.32 and a relative viability ([1]; first compound 0.2 µM) of 1.27. It also gave a relative viability ([1]; first compound 0.6325 µM) of 1.01, a relative viability ([1]; first compound 2 µM) of 0.735 and a relative viability ([2]; first compound 0.02 µM) of 0.945. The relative viability ([2]; first compound 0.06325 µM) was 1.42, the relative viability ([2]; first compound 0.2 µM) was 1.06 and the relative viability ([2]; first compound 0.6325 µM) was 0.925. For the same cell line, the relative viability ([2]; first compound 2 µM) was 0.531, the relative viability ([3]; first compound 0.08 µM) was 0.765 and the relative viability ([3]; first compound 0.8 µM) was 0.67. It also gave a relative viability ([3]; first compound 2.53 µM) of 0.648, a relative viability ([3]; first compound 8 µM) of 0.544 and a relative viability ([4]; first compound 0.02 µM) of 0.718. The relative viability ([4]; first compound 0.06325 µM) was 0.682, the relative viability ([4]; first compound 0.2 µM) was 0.588 and the relative viability ([4]; first compound 0.6325 µM) was 0.29. For the same cell line, the relative viability ([4]; first compound 2 µM) was 0.161.

IA-LM was tested, and the relative viability ([1]; first compound 0.06325 µM) was 0.751, the relative viability ([1]; first compound 0.2 µM) was 0.705 and the relative viability ([1]; first compound 0.6325 µM) was 0.656. It also gave a relative viability ([1]; first compound 2 µM) of 0.374, a relative viability ([2]; first compound 0.02 µM) of 0.848 and a relative viability ([2]; first compound 0.06325 µM) of 0.67. The relative viability ([2]; first compound 0.2 µM) was 0.621, the relative viability ([2]; first compound 0.6325 µM) was 0.588 and the relative viability ([2]; first compound 2 µM) was 0.276. For the same cell line, the relative viability ([3]; first compound 0.08 µM) was 0.956, the relative viability ([3]; first compound 0.8 µM) was 0.914 and the relative viability ([3]; first compound 2.53 µM) was 0.922. It also gave a relative viability ([3]; first compound 8 µM) of 0.926.

For LC-2-ad, the relative viability ([1]; first compound 0.02 µM) was 0.461, the relative viability ([1]; first compound 0.06325 µM) was 0.529 and the relative viability ([1]; first compound 0.2 µM) was 0.418. For the same cell line, the relative viability ([1]; first compound 0.6325 µM) was 0.611, the relative viability ([1]; first compound 2 µM) was 0.379 and the relative viability ([2]; first compound 0.02 µM) was 0.948. For the same cell line, the relative viability ([2]; first compound 0.06325 µM) was 0.939, the relative viability ([2]; first compound 0.2 µM) was 0.968 and the relative viability ([2]; first compound 0.6325 µM) was 1.03. It also gave a relative viability ([2]; first compound 2 µM) of 0.537, a relative viability ([3]; first compound 0.08 µM) of 0.676 and a relative viability ([3]; first compound 0.8 µM) of 0.709. For the same cell line, the relative viability ([3]; first compound 2.53 µM) was 0.663, the relative viability ([3]; first compound 8 µM) was 0.66 and the relative viability ([4]; first compound 0.02 µM) was 0.516. It also gave a relative viability ([4]; first compound 0.06325 µM) of 0.533, a relative viability ([4]; first compound 0.2 µM) of 0.428 and a relative viability ([4]; first compound 0.6325 µM) of 0.222. It also gave a relative viability ([4]; first compound 2 µM) of 0.165.

LCLC-97TM1 was tested, and the relative viability ([1]; first compound 0.06325 µM) was 0.532, the relative viability ([1]; first compound 0.2 µM) was 0.673 and the relative viability ([1]; first compound 0.6325 µM) was 0.546. It also gave a relative viability ([1]; first compound 2 µM) of 0.43, a relative viability ([2]; first compound 0.06325 µM) of 1.25 and a relative viability ([2]; first compound 0.2 µM) of 1.15. The relative viability ([2]; first compound 0.6325 µM) was 0.892, the relative viability ([2]; first compound 2 µM) was 0.761 and the relative viability ([3]; first compound 0.08 µM) was 0.777. It also gave a relative viability ([3]; first compound 0.8 µM) of 0.842, a relative viability ([3]; first compound 2.53 µM) of 0.79 and a relative viability ([3]; first compound 8 µM) of 0.727. It also gave a relative viability ([4]; first compound 0.02 µM) of 0.882, a relative viability ([4]; first compound 0.06325 µM) of 0.646 and a relative viability ([4]; first compound 0.2 µM) of 0.748. It also gave a relative viability ([4]; first compound 0.6325 µM) of 0.782 and a relative viability ([4]; first compound 2 µM) of 0.615.

Work on LCLC-103H yielded a relative viability ([3]; first compound 0.08 µM) of 0.839, a relative viability ([3]; first compound 0.8 µM) of 0.862 and a relative viability ([3]; first compound 2.53 µM) of 0.832. The relative viability ([3]; first compound 8 µM) was 0.652, the relative viability ([4]; first compound 0.02 µM) was 0.478 and the relative viability ([4]; first compound 0.06325 µM) was 0.458. It also gave a relative viability ([4]; first compound 0.2 µM) of 0.48, a relative viability ([4]; first compound 0.6325 µM) of 0.362 and a relative viability ([4]; first compound 2 µM) of 0.224.

With LK-2 the relative viability ([1]; first compound 0.02 µM) was 0.953, the relative viability ([1]; first compound 0.06325 µM) was 0.845 and the relative viability ([1]; first compound 0.2 µM) was 0.869. The relative viability ([1]; first compound 0.6325 µM) was 0.714, the relative viability ([1]; first compound 2 µM) was 0.54 and the relative viability ([2]; first compound 0.02 µM) was 1.14. For the same cell line, the relative viability ([2]; first compound 0.06325 µM) was 1.11, the relative viability ([2]; first compound 0.2 µM) was 0.828 and the relative viability ([2]; first compound 0.6325 µM) was 0.776. It also gave a relative viability ([2]; first compound 2 µM) of 0.563, a relative viability ([3]; first compound 0.08 µM) of 0.35 and a relative viability ([3]; first compound 0.8 µM) of 0.347. For the same cell line, the relative viability ([3]; first compound 2.53 µM) was 0.23, the relative viability ([3]; first compound 8 µM) was 0.321 and the relative viability ([4]; first compound 0.02 µM) was 0.292. It also gave a relative viability ([4]; first compound 0.06325 µM) of 0.389, a relative viability ([4]; first compound 0.2 µM) of 0.388 and a relative viability ([4]; first compound 0.6325 µM) of 0.286. The relative viability ([4]; first compound 2 µM) was 0.301.

For LOU-NH91, the relative viability ([1]; first compound 0.02 µM) was 0.658, the relative viability ([1]; first compound 0.06325 µM) was 0.728 and the relative viability ([1]; first compound 0.2 µM) was 0.765. For the same cell line, the relative viability ([1]; first compound 0.6325 µM) was 0.74, the relative viability ([1]; first compound 2 µM) was 0.586 and the relative viability ([2]; first compound 0.02 µM) was 0.764. It also gave a relative viability ([2]; first compound 0.06325 µM) of 0.826, a relative viability ([2]; first compound 0.2 µM) of 0.725 and a relative viability ([2]; first compound 0.6325 µM) of 0.769. The relative viability ([2]; first compound 2 µM) was 0.715, the relative viability ([3]; first compound 0.08 µM) was 0.976 and the relative viability ([3]; first compound 0.8 µM) was 1. For the same cell line, the relative viability ([3]; first compound 2.53 µM) was 0.845, the relative viability ([3]; first compound 8 µM) was 0.644 and the relative viability ([4]; first compound 0.02 µM) was 0.565. The relative viability ([4]; first compound 0.06325 µM) was 0.607, the relative viability ([4]; first compound 0.2 µM) was 0.574 and the relative viability ([4]; first compound 0.6325 µM) was 0.566. The relative viability ([4]; first compound 2 µM) was 0.509.
